# Assay results: US20060229433A1, “Modified antiviral peptides with increased activity and cell membrane affinity” (priority 2003, published 2006)
# Where “and” joins values, the source holds several entries; their conditions need not be identical. Equal values may be shown once. Bridge positions count the residues as written; N and C are the ends. Square brackets hold non-standard residues; d marks the D form. Peptide text beside a SMILES is read from it. I, II: the chains in the order shown. Ava = NCCCCC(=O)O
# How the values were obtained:
# HIV-1 NL 4-3 [1] = experiment: HIV-1 infection of C8166 cells (syncytia formation, p24 ELISA) with HIV-1 NL 4-3; format: cell-based; settings: for IC50: C8166 cells, HIV-1 subtype B NL 4-3, Table 3
# Protocol: (§1) HIV-1 NL 4-3 isolate (Adachi et al., 1986; Barré-Sinoussi et al., 1983) and highly cytopathic Zairian HIV-1 NDK isolate (Ellrodt et al., 1984) was propagated in permissive CEM cells (Nara et al., 1987). Uninfected CEM and C8166 (Salahuddin et al., 1983) were maintained in RPMI 1640 (R10) with ultraglutamine (cambrex, Vervier, Belgium), penicillin (100 U/ml), streptomycin (100 μg/ml), and 10% heat-inactivated fetal calf serum (Cambrex).
# (§2) Samples of 3×10^5/100 μL C8166 cells were preincubated in 96-well microtiter plates in culture medium containing various concentrations of peptide. After a 1 h treatment at 37° C., 100 μl of diluted viral solution of HIV-1 was added. The cells were exposed to the virus for 1 h at 37° C. at a multiplicity of infection of 1000 TCID50 per ml. The cells were washed three times and cultured at 3×10^5/ml of R10 with the treatment in 24-well plates incubated at 37° C. C8166 culture medium was replaced at Day-4 post-infection. The treatment was permanent before virus adsorption, during virus adsorption and after infection. Assays on C8166 cells have been performed at least twice and in duplicate. Toxicity was evaluated by daily cell count and trypan-blue exclusion assay. Infection of C8166 T-cells with HIV-1 was assessed by virus-induced cytopathic effects (syncytia formation) and by quantification of cell free p24 viral protein in the culture supernatants. Measurements of HIV-1 p24^gag concentration in the culture supernatants were achieved by ELISA (ALLIANCE® HIV-1 p24 kit, Perkin Elmer, life sciences, USA).
# HIV-1 NL 4-3 [2] = experiment: Infection of human peripheral blood lymphocytes (PBL) with NL 4-3 strain, p24 ELISA; format: cell-based
# Protocol: Peripheral blood lymphocytes from an HIV-1 negative donor were grown as described earlier, maintained in RPMI 1640 with ultraglutamine, supplemented with IL2 (20 μg/ml), penicillin (100 U/ml), streptomycin (100 μg/ml), and 10% heat-inactivated fetal calf serum. Cells were stimulated three days in the medium supplemented with phytohemagglutinin (20 U/ml PHA P, DIFCO, Detroit Mich.).
# Samples of 10^6/100 μL PBL cells were preincubated in 96-well microtiter plates in culture medium containing various concentrations of peptides. After a 1 h treatment at 37° C., 100 μl of diluted viral solution of HIV-1 was added. The cells were exposed to the virus for 1 h at 37° C. at a multiplicity of infection of 1000 TCID50 per ml. The cells were washed three times and cultured at […] of medium with the treatment in 24-well plates incubated at 37° in culture medium with the peptides in 5% CO2. The treatment was permanent before virus adsorption, during virus adsorption and after infection. The PBL culture medium was replaced every 3-4 days during three weeks always in the presence of peptide. The cell viability was assessed by cell counts and trypan-blue exclusion assay. The viral production in the culture supernatant was quantified by p24 ELISA test, as described earlier. All the experiments have been done in blind-tests. Tests have been done in duplicate.
# [3] = tested on: HIV-1 89.6 subtype B dualtropic (X4R5); settings: PBMC, Table 5
# HIV-1 NL 4-3 [4] = experiment: HIV-1 infection of C8166 cells (syncytia formation, p24 ELISA) with HIV-1 NL 4-3; format: cell-based; design: key: ++, +, (+), (+)− and − represent decreasing numbers of syncitia formed; ++, +, (+), (+)− and − represent decreasing numbers of syncitia formed; ++, +, (+), (+)− and − represent decreasing numbers of syncitia formed; ++, +, (+), (+)− and − represent decreasing numbers of syncitia formed; ++, +, (+), (+)− and − represent decreasing numbers of syncitia formed; settings: Table 1
# Protocol: as §1, §2
# HIV-1 NL 4-3 [5] = experiment: as above; format: cell-based; design: key: ++, +, (+), (+)− and − represent decreasing numbers of syncitia formed.; ++, +, (+), (+)− and − represent decreasing numbers of syncitia formed.; ++, +, (+), (+)− and − represent decreasing numbers of syncitia formed.; ++, +, (+), (+)− and − represent decreasing numbers of syncitia formed.; ++, +, (+), (+)− and − represent decreasing numbers of syncitia formed; settings: Table 2
# Protocol: as §1, §2
compound,measurement,setting,value
"CC(C)C[C@H](NC(=O)[C@@H]1CCCN1C(=O)[C@H](CO)NC(=O)[C@H](Cc1ccc(O)cc1)NC(=O)CNC(=O)[C@H](CCC(N)=O)NC(=O)[C@@H](N)CCCNC(=N)N)C(=O)NCCCC[C@H](NC(=O)[C@H](CC(C)C)NC(=O)[C@@H]1CCCN1C(=O)[C@H](CO)NC(=O)[C@H](Cc1ccc(O)cc1)NC(=O)CNC(=O)[C@H](CCC(N)=O)NC(=O)[C@@H](N)CCCNC(=N)N)C(=O)NCCCCC(=O)O [RL dimer valeric acid, (RQGYSPL)2-K—NHCH2CH2CH2CH2COOH] (I: H-RQGYSPLK[Ava]-OH / II: H-RQGYSPL; amide I:8-II:C; N-terminus assumed)",IC50,HIV-1 NL 4-3 [1],50 nM
same,IC50,"HIV-1 NL 4-3 [2]; PBL, NL 4-3 strain, Table 4",5 nM
same,IC100,"HIV-1 NL 4-3 [2]; PBL, NL 4-3 strain, Table 4",0.05 µM
same,IC50,[3],10 nM
same,IC100,[3],0.5 µM
"CC(C)C[C@H](NC(=O)[C@@H]1CCCN1C(=O)[C@H](CO)NC(=O)[C@H](Cc1ccc(O)cc1)NC(=O)CNC(=O)[C@H](CCC(N)=O)NC(=O)[C@@H](N)CCCNC(=N)N)C(=O)NCCCCC(=O)O [RL monomer valeric acid, RQGYSPL-NHCH2CH2CH2CH2COOH] (H-RQGYSPL[Ava]-OH)",IC50,HIV-1 NL 4-3 [1],50 nM
same,IC50,"HIV-1 NL 4-3 [2]; PBL, NL 4-3 strain, Table 4",10 nM
same,IC100,"HIV-1 NL 4-3 [2]; PBL, NL 4-3 strain, Table 4",1 µM
same,IC50,[3],10 nM
same,IC100,[3],0.1 µM
"CC(C)C[C@H](NC(=O)[C@@H]1CCCN1C(=O)[C@H](CO)NC(=O)[C@H](Cc1ccc(O)cc1)NC(=O)CNC(=O)[C@H](CCC(N)=O)NC(=O)[C@@H](N)CCCNC(=N)N)C(=O)NCCCC[C@H](NC(=O)[C@H](CC(C)C)NC(=O)[C@@H]1CCCN1C(=O)[C@H](CO)NC(=O)[C@H](Cc1ccc(O)cc1)NC(=O)CNC(=O)[C@H](CCC(N)=O)NC(=O)[C@@H](N)CCCNC(=N)N)C(=O)NCCCC[C@H](NC(=O)[C@H](CCCCNC(=O)[C@H](CC(C)C)NC(=O)[C@@H]1CCCN1C(=O)[C@H](CO)NC(=O)[C@H](Cc1ccc(O)cc1)NC(=O)CNC(=O)[C@H](CCC(N)=O)NC(=O)[C@@H](N)CCCNC(=N)N)NC(=O)[C@H](CC(C)C)NC(=O)[C@@H]1CCCN1C(=O)[C@H](CO)NC(=O)[C@H](Cc1ccc(O)cc1)NC(=O)CNC(=O)[C@H](CCC(N)=O)NC(=O)[C@@H](N)CCCNC(=N)N)C(=O)NCCCC[C@H](NC(=O)[C@H](CCCCNC(=O)[C@H](CCCCNC(=O)[C@H](CC(C)C)NC(=O)[C@@H]1CCCN1C(=O)[C@H](CO)NC(=O)[C@H](Cc1ccc(O)cc1)NC(=O)CNC(=O)[C@H](CCC(N)=O)NC(=O)[C@@H](N)CCCNC(=N)N)NC(=O)[C@H](CC(C)C)NC(=O)[C@@H]1CCCN1C(=O)[C@H](CO)NC(=O)[C@H](Cc1ccc(O)cc1)NC(=O)CNC(=O)[C@H](CCC(N)=O)NC(=O)[C@@H](N)CCCNC(=N)N)NC(=O)[C@H](CCCCNC(=O)[C@H](CC(C)C)NC(=O)[C@@H]1CCCN1C(=O)[C@H](CO)NC(=O)[C@H](Cc1ccc(O)cc1)NC(=O)CNC(=O)[C@H](CCC(N)=O)NC(=O)[C@@H](N)CCCNC(=N)N)NC(=O)[C@H](CC(C)C)NC(=O)[C@@H]1CCCN1C(=O)[C@H](CO)NC(=O)[C@H](Cc1ccc(O)cc1)NC(=O)CNC(=O)[C@H](CCC(N)=O)NC(=O)[C@@H](N)CCCNC(=N)N)C(=O)NCCC(=O)O [RL, (RQGYSPL)8-K4-K2-K-βA-OH, reference compound]",IC50,HIV-1 NL 4-3 [1],10 nM
same,IC50,"HIV-1 NL 4-3 [2]; PBL, NL 4-3 strain, Table 4",5 nM
same,IC100,"HIV-1 NL 4-3 [2]; PBL, NL 4-3 strain, Table 4",0.1 µM
same,IC50,[3],6 nM
same,IC100,[3],0.05 µM
"C[C@H](NC(=O)[C@H](CCCNC(=N)N)NC(=O)CNC(=O)[C@@H]1CCCN1C(=O)CN)C(=O)N[C@@H](Cc1ccccc1)C(=O)NCCCC[C@H](NC(=O)[C@H](Cc1ccccc1)NC(=O)[C@H](C)NC(=O)[C@H](CCCNC(=N)N)NC(=O)CNC(=O)[C@@H]1CCCN1C(=O)CN)C(=O)NCCCCC(=O)O [SPC3 dimer valeric acid, (GPGRAF)2-K—NHCH2CH2CH2CH2COOH] (I: H-GPGRAFK[Ava]-OH / II: H-GPGRAF; amide I:7-II:C; N-terminus assumed)",IC50,HIV-1 NL 4-3 [1],50 nM
same,IC50,[3],8 nM
same,IC100,[3],0.5 µM
SPC3-Tat [S3],P 24,"HIV-1 NL 4-3 [1]; Day 4, 0.1 μM, Table 2",61 pg/mL and 33 pg/mL
same,P 24,"HIV-1 NL 4-3 [1]; Day 4, 2 μM, Table 1",NEG
same,P 24,"HIV-1 NL 4-3 [1]; Day 4, 5 μM, Table 1",NEG
same,P 24,"HIV-1 NL 4-3 [1]; Day 7, 0.05 μM, Table 2",3664 pg/mL and 2064 pg/mL
same,P 24,"HIV-1 NL 4-3 [1]; Day 7, 0.1 μM, Table 2",787 pg/mL and 496 pg/mL
same,IC100,HIV-1 NL 4-3 [2]; on PBL,0.1 µM
same,Day 4 syncitia formed,HIV-1 NL 4-3 [4]; 0.5 μM,−
same,Day 5 syncitia formed,HIV-1 NL 4-3 [4]; 0.5 μM,−
same,Day 6 syncitia formed,HIV-1 NL 4-3 [4]; 0.5 μM,−
same,Day 7 syncitia formed,HIV-1 NL 4-3 [4]; 0.5 μM,+ and (+)
same,Day 4 syncitia formed,HIV-1 NL 4-3 [4]; 1 μM,−
same,Day 5 syncitia formed,HIV-1 NL 4-3 [4]; 1 μM,−
same,Day 6 syncitia formed,HIV-1 NL 4-3 [4]; 1 μM,−
same,Day 7 syncitia formed,HIV-1 NL 4-3 [4]; 1 μM,− and +
same,Day 4 syncitia formed,HIV-1 NL 4-3 [4]; 2 μM,−
same,Day 5 syncitia formed,HIV-1 NL 4-3 [4]; 2 μM,−
same,Day 6 syncitia formed,HIV-1 NL 4-3 [4]; 2 μM,−
same,Day 7 syncitia formed,HIV-1 NL 4-3 [4]; 2 μM,−
same,Day 4 syncitia formed,HIV-1 NL 4-3 [4]; 5 μM,−
same,Day 5 syncitia formed,HIV-1 NL 4-3 [4]; 5 μM,−
same,Day 6 syncitia formed,HIV-1 NL 4-3 [4]; 5 μM,−
same,Day 7 syncitia formed,HIV-1 NL 4-3 [4]; 5 μM,−
same,Day 4 syncitia formed,HIV-1 NL 4-3 [5]; 0.05 μM,(+)
same,Day 5 syncitia formed,HIV-1 NL 4-3 [5]; 0.05 μM,+
same,Day 6 syncitia formed,HIV-1 NL 4-3 [5]; 0.05 μM,++
same,Day 7 syncitia formed,HIV-1 NL 4-3 [5]; 0.05 μM,++
same,Day 4 syncitia formed,HIV-1 NL 4-3 [5]; 0.1 μM,(+)
same,Day 5 syncitia formed,HIV-1 NL 4-3 [5]; 0.1 μM,− and +
same,Day 6 syncitia formed,HIV-1 NL 4-3 [5]; 0.1 μM,+
same,Day 7 syncitia formed,HIV-1 NL 4-3 [5]; 0.1 μM,++
same,Day 4 syncitia formed,HIV-1 NL 4-3 [5]; 0.5 μM,−
same,Day 5 syncitia formed,HIV-1 NL 4-3 [5]; 0.5 μM,−
same,Day 6 syncitia formed,HIV-1 NL 4-3 [5]; 0.5 μM,−
same,Day 7 syncitia formed,HIV-1 NL 4-3 [5]; 0.5 μM,(+) and +
same,Day 4 syncitia formed,HIV-1 NL 4-3 [5]; 1 μM,−
same,Day 5 syncitia formed,HIV-1 NL 4-3 [5]; 1 μM,−
same,Day 6 syncitia formed,HIV-1 NL 4-3 [5]; 1 μM,−
same,Day 7 syncitia formed,HIV-1 NL 4-3 [5]; 1 μM,−
